From ChEMBL document CHEMBL1145752, “Dissociation of antibacterial and hemolytic activities of an amphipathic peptide antibiotic” (2003) come the findings set out here.

Broadly, the MIC is the least concentration at which growth counts as inhibited. Low readings indicate a more susceptible organism, high ones a less susceptible organism.

Each structure is given as a SMILES string. In brackets after ≈: the same amount, converted by molar mass. Non-standard residues stand in square brackets, D forms with d. Residues, ends and D or L forms follow the SMILES beside them. Orn = NCCC[C@H](N)C(=O)O

Format in all cases: functional
Assay [1] in a line: Tested for minimum concentration for hemolysis of fresh human erythrocytes.
The test system of assay [2] is Bacillus subtilis. Put plainly: Inhibitory activity was determined against bacillus subtilis (ATCC 82).
For assay [3], the system named is Bacillus subtilis. Kind of assay: Ratio of minimum hemolysis concentration to that of minimum inhibitory concentration.

`CC(C)C[C@@H]1NC(=O)[C@H](CCCN)NC(=O)[C@H](C(C)C)NC(=O)[C@H](Cc2ccc(O)cc2)NC(=O)[C@H](CC(N)=O)NC(=O)[C@H](CC(N)=O)NC(=O)[C@@H](Cc2ccccc2)NC(=O)[C@H](Cc2ccccc2)NC(=O)[C@@H]2CCCN2C(=O)[C@@H](Cc2ccccc2)NC1=O`: the MHC in assay [1] is 20 µg/mL. In assay [2], this compound registered an MIC of 0.4 µg/mL (≈ 0.318 µM). For the same compound, the Ratio in assay [3] was 50.

The compound `CC(C)C[C@@H]1NC(=O)[C@H](CCCN)NC(=O)[C@H](C(C)C)NC(=O)[C@H](Cc2ccc(O)cc2)NC(=O)[C@H](CCC(N)=O)NC(=O)[C@H](CC(N)=O)NC(=O)[C@@H](Cc2ccccc2)NC(=O)[C@H](Cc2ccccc2)NC(=O)[C@@H]2CCCN2C(=O)[C@@H](Cc2ccccc2)NC1=O` [TYROCIDINE A] (cyclo(F[dF]NQYV[Orn]L[dF]P)) came in with an MHC in assay [1] of 8.2 µg/mL. The lowest concentration to inhibit growth in assay [2] (MIC) was 8.3 µg/mL (≈ 6.53 µM). In assay [3], the Ratio is on record as 1.

`CC[C@H](C)[C@@H]1NC(=O)[C@H](CC(N)=O)NC(=O)[C@@H](Cc2ccccc2)NC(=O)[C@H](Cc2ccccc2)NC(=O)[C@@H]2CCCN2C(=O)[C@@H](Cc2ccccc2)NC(=O)[C@H](CC(C)C)NC(=O)[C@H](CCCN)NC(=O)[C@H](C(C)C)NC(=O)[C@H](Cc2ccc(O)cc2)NC1=O` had an MHC in assay [1] of 45 µg/mL. Further, the MIC in assay [2] was 1.8 µg/mL (≈ 1.43 µM). Besides, in assay [3], the Ratio amounted to 25.

In assay [1], `CC(C)C[C@@H]1NC(=O)[C@H](CCCN)NC(=O)[C@H](C(C)C)NC(=O)[C@H](Cc2ccc(O)cc2)NC(=O)[C@H](CCC(N)=O)NC(=O)[C@H](C)NC(=O)[C@@H](Cc2ccccc2)NC(=O)[C@H](Cc2ccccc2)NC(=O)[C@@H]2CCCN2C(=O)[C@@H](Cc2ccccc2)NC1=O` had an MHC of 39 µg/mL. Besides, the MIC in assay [2] stood at 15 µg/mL (≈ 12.2 µM). The Ratio in assay [3] is reported as 2.6.

In assay [1], `CC(C)C[C@@H]1NC(=O)[C@H](CCCN)NC(=O)[C@H](C(C)C)NC(=O)[C@H](Cc2ccc(O)cc2)NC(=O)[C@H](CCC(N)=O)NC(=O)[C@H](CC(N)=O)NC(=O)[C@@H](Cc2ccccc2)NC(=O)[C@H](C)NC(=O)[C@@H]2CCCN2C(=O)[C@@H](Cc2ccccc2)NC1=O` had an MHC of 47 µg/mL. This compound also returned an MIC in assay [2] of 19 µg/mL (≈ 15.9 µM). For the same compound, the Ratio in assay [3] is reported as 2.5.

As to `CC(C)C[C@@H]1NC(=O)[C@H](CCCN)NC(=O)[C@H](C(C)C)NC(=O)[C@H](Cc2ccc(O)cc2)NC(=O)[C@H](CCC(N)=O)NC(=O)[C@H](CC(N)=O)NC(=O)[C@@H](C)NC(=O)[C@H](Cc2ccccc2)NC(=O)[C@@H]2CCCN2C(=O)[C@@H](Cc2ccccc2)NC1=O`, the MHC in assay [1] came to 47 µg/mL. This compound also had an MIC in assay [2] of 10 µg/mL (≈ 8.37 µM). In addition, the Ratio in assay [3] is listed as 4.7.

The compound `CC(C)[C@@H]1NC(=O)[C@H](Cc2ccc(O)cc2)NC(=O)[C@H](CCC(N)=O)NC(=O)[C@H](CC(N)=O)NC(=O)[C@@H](Cc2ccccc2)NC(=O)[C@H](Cc2ccccc2)NC(=O)[C@@H]2CCCN2C(=O)[C@@H](Cc2ccccc2)NC(=O)[C@H](C)NC(=O)[C@H](CCCN)NC1=O` had an MHC in assay [1] of 50 µg/mL. Besides, the MIC in assay [2] came out at 25 µg/mL (≈ 20.4 µM). The Ratio in assay [3] came out at 2.

In assay [1], `CC(C)C[C@@H]1NC(=O)[C@H](CCCN)NC(=O)[C@H](C(C)C)NC(=O)[C@H](Cc2ccc(O)cc2)NC(=O)[C@H](CO)NC(=O)[C@H](CC(N)=O)NC(=O)[C@@H](Cc2ccccc2)NC(=O)[C@H](Cc2ccccc2)NC(=O)[C@@H]2CCCN2C(=O)[C@@H](Cc2ccccc2)NC1=O` yielded an MHC of 16 µg/mL. This compound also came in with an MIC in assay [2] of 0.3 µg/mL (≈ 0.244 µM). Moreover, the Ratio in assay [3] was 53.

Take `CC(C)C[C@@H]1NC(=O)[C@H](CCCN)NC(=O)[C@H](C(C)C)NC(=O)[C@H](Cc2ccc(O)cc2)NC(=O)[C@H](CCCN=C(N)N)NC(=O)[C@H](CC(N)=O)NC(=O)[C@@H](Cc2ccccc2)NC(=O)[C@H](Cc2ccccc2)NC(=O)[C@@H]2CCCN2C(=O)[C@@H](Cc2ccccc2)NC1=O`: the MHC in assay [1] worked out at 42 µg/mL. The same compound registered an MIC in assay [2] of 0.3 µg/mL (≈ 0.231 µM). The Ratio in assay [3] is 140.

`CC(C)C[C@@H]1NC(=O)[C@H](C)NC(=O)[C@H](C(C)C)NC(=O)[C@H](Cc2ccc(O)cc2)NC(=O)[C@H](CCC(N)=O)NC(=O)[C@H](CC(N)=O)NC(=O)[C@@H](Cc2ccccc2)NC(=O)[C@H](Cc2ccccc2)NC(=O)[C@@H]2CCCN2C(=O)[C@@H](Cc2ccccc2)NC1=O` displayed an MHC in assay [1] of 13 µg/mL. The same compound gave a minimal inhibitory concentration (MIC) in assay [2] of 13 µg/mL (≈ 10.6 µM). For the same compound, in assay [3], the Ratio is 1.

With `CC(C)C[C@@H]1NC(=O)[C@H](CCCN)NC(=O)[C@H](C(C)C)NC(=O)[C@H](Cc2ccc(O)cc2)NC(=O)[C@H](CCC(N)=O)NC(=O)[C@H](CC(N)=O)NC(=O)[C@@H](Cc2ccccc2)NC(=O)[C@H](Cc2ccccc2)NC(=O)[C@H](C)NC(=O)[C@@H](Cc2ccccc2)NC1=O`, in assay [1], the MHC stood at 53 µg/mL. The MIC in assay [2] was 18 µg/mL (≈ 14.5 µM). Further, the Ratio in assay [3] is on record as 2.9.

Compound `CC(C)C[C@@H]1NC(=O)[C@H](CC(N)=O)NC(=O)[C@@H](Cc2ccccc2)NC(=O)[C@H](Cc2ccccc2)NC(=O)[C@@H]2CCCN2C(=O)[C@@H](Cc2ccccc2)NC(=O)[C@H](CC(C)C)NC(=O)[C@H](CCCN)NC(=O)[C@H](C(C)C)NC(=O)[C@H](Cc2ccc(O)cc2)NC1=O` yielded an MHC in assay [1] of 20 µg/mL. The compound also showed an MIC in assay [2] of 0.3 µg/mL (≈ 0.239 µM). The Ratio in assay [3] is 67.

`CC(C)C[C@@H]1NC(=O)[C@H](CCCN)NC(=O)[C@H](C(C)C)NC(=O)[C@H](Cc2ccc(O)cc2)NC(=O)[C@H](CCC(=O)O)NC(=O)[C@H](CC(N)=O)NC(=O)[C@@H](Cc2ccccc2)NC(=O)[C@H](Cc2ccccc2)NC(=O)[C@@H]2CCCN2C(=O)[C@@H](Cc2ccccc2)NC1=O`: the MHC in assay [1] amounted to 30 µg/mL. In assay [2], this compound came in with an MIC of 7.5 µg/mL (≈ 5.9 µM). Moreover, the Ratio in assay [3] is reported as 4.

`CC(C)C[C@@H]1NC(=O)[C@H](CCCN)NC(=O)[C@H](C(C)C)NC(=O)[C@H](Cc2ccc(O)cc2)NC(=O)[C@H](CCC(N)=O)NC(=O)[C@H](CC(N)=O)NC(=O)[C@@H](Cc2ccccc2)NC(=O)[C@H](Cc2ccccc2)NC(=O)[C@@H]2CCCN2C(=O)[C@@H](C)NC1=O`: the MHC in assay [1] came out at 20 µg/mL. Also, the MIC in assay [2] was determined as 15 µg/mL (≈ 12.6 µM). For the same compound, the Ratio in assay [3] is 1.3.

For `CC(C)C[C@@H]1NC(=O)[C@H](CCCN)NC(=O)[C@H](C(C)C)NC(=O)[C@H](Cc2ccc(O)cc2)NC(=O)[C@H](CCCN)NC(=O)[C@H](CC(N)=O)NC(=O)[C@@H](Cc2ccccc2)NC(=O)[C@H](Cc2ccccc2)NC(=O)[C@@H]2CCCN2C(=O)[C@@H](Cc2ccccc2)NC1=O` (cyclo(F[dF]N[Orn]YV[Orn]L[dF]P)), the MHC in assay [1] came out at 25 µg/mL. Further, the MIC in assay [2] turned out to be 0.2 µg/mL (≈ 0.159 µM). In addition, the Ratio in assay [3] worked out at 125.

With `CC(C)C[C@@H]1NC(=O)[C@H](CCCN)NC(=O)[C@H](C(C)C)NC(=O)[C@H](Cc2ccc(O)cc2)NC(=O)[C@H](CCCCN)NC(=O)[C@H](CC(N)=O)NC(=O)[C@@H](Cc2ccccc2)NC(=O)[C@H](Cc2ccccc2)NC(=O)[C@@H]2CCCN2C(=O)[C@@H](Cc2ccccc2)NC1=O` (cyclo(F[dF]NKYV[Orn]L[dF]P)), in assay [1], the MHC stood at 99 µg/mL. Further, in assay [2], the MIC turned out to be 1.1 µg/mL (≈ 0.866 µM). The Ratio in assay [3] stood at 90.

Turning to `CC(C)C[C@@H]1NC(=O)[C@H](CCCN)NC(=O)[C@H](C(C)C)NC(=O)[C@H](Cc2ccc(O)cc2)NC(=O)[C@H](CC(=O)O)NC(=O)[C@H](CC(N)=O)NC(=O)[C@@H](Cc2ccccc2)NC(=O)[C@H](Cc2ccccc2)NC(=O)[C@@H]2CCCN2C(=O)[C@@H](Cc2ccccc2)NC1=O`, the MHC in assay [1] was determined as 32 µg/mL. Besides, 5.3 µg/mL (≈ 4.21 µM) was the least that counted as inhibitory in assay [2] (MIC). Moreover, the Ratio in assay [3] is given as 6.

As to `CC(C)C[C@@H]1NC(=O)[C@H](CCCN)NC(=O)[C@H](C(C)C)NC(=O)[C@H](Cc2ccc(O)cc2)NC(=O)[C@H](C(C)C)NC(=O)[C@H](CC(N)=O)NC(=O)[C@@H](Cc2ccccc2)NC(=O)[C@H](Cc2ccccc2)NC(=O)[C@@H]2CCCN2C(=O)[C@@H](Cc2ccccc2)NC1=O`, the MHC in assay [1] is 35 µg/mL. Also, the MIC in assay [2] amounted to 2.9 µg/mL (≈ 2.34 µM). Moreover, the Ratio in assay [3] amounted to 12.

Take `CC(C)C[C@@H]1NC(=O)[C@H](CCCN)NC(=O)[C@H](C(C)C)NC(=O)[C@H](Cc2ccc(O)cc2)NC(=O)[C@H](Cc2ccccc2)NC(=O)[C@H](CC(N)=O)NC(=O)[C@@H](Cc2ccccc2)NC(=O)[C@H](Cc2ccccc2)NC(=O)[C@@H]2CCCN2C(=O)[C@@H](Cc2ccccc2)NC1=O`: in assay [1], the MHC stood at 18 µg/mL. The MIC in assay [2] is 0.6 µg/mL (≈ 0.465 µM). For the same compound, the Ratio in assay [3] is 30.

Take `CC(C)C[C@@H]1NC(=O)[C@H](CCCN)NC(=O)[C@H](C)NC(=O)[C@H](Cc2ccc(O)cc2)NC(=O)[C@H](CCC(N)=O)NC(=O)[C@H](CC(N)=O)NC(=O)[C@@H](Cc2ccccc2)NC(=O)[C@H](Cc2ccccc2)NC(=O)[C@@H]2CCCN2C(=O)[C@@H](Cc2ccccc2)NC1=O`: the MHC in assay [1] worked out at 16 µg/mL. In assay [2], this compound gave an MIC of 15 µg/mL (≈ 12.1 µM). For the same compound, the Ratio in assay [3] came out at 1.1.

In the case of `CC(C)C[C@@H]1NC(=O)[C@H](CCCN)NC(=O)[C@H](C(C)C)NC(=O)[C@H](Cc2ccc(O)cc2)NC(=O)[C@H](C)NC(=O)[C@H](CC(N)=O)NC(=O)[C@@H](Cc2ccccc2)NC(=O)[C@H](Cc2ccccc2)NC(=O)[C@@H]2CCCN2C(=O)[C@@H](Cc2ccccc2)NC1=O`, in assay [1], the MHC was determined as 28 µg/mL. The same compound came in with an MIC in assay [2] of 1.5 µg/mL (≈ 1.24 µM). In addition, the Ratio in assay [3] came out at 19.

For the compound `CC(C)C[C@@H]1NC(=O)[C@H](CCCN)NC(=O)[C@H](C(C)C)NC(=O)[C@H](Cc2ccc(O)cc2)NC(=O)[C@H](Cc2ccc(O)cc2)NC(=O)[C@H](CC(N)=O)NC(=O)[C@@H](Cc2ccccc2)NC(=O)[C@H](Cc2ccccc2)NC(=O)[C@@H]2CCCN2C(=O)[C@@H](Cc2ccccc2)NC1=O`, the MHC in assay [1] amounted to 120 µg/mL. 5 µg/mL (≈ 3.83 µM) was the least that counted as inhibitory in assay [2] (MIC). Moreover, the Ratio in assay [3] is listed as 24.

As for `CC(C)C[C@@H]1NC(=O)[C@H](CCCN)NC(=O)[C@H](C(C)C)NC(=O)[C@H](C)NC(=O)[C@H](CCC(N)=O)NC(=O)[C@H](CC(N)=O)NC(=O)[C@@H](Cc2ccccc2)NC(=O)[C@H](Cc2ccccc2)NC(=O)[C@@H]2CCCN2C(=O)[C@@H](Cc2ccccc2)NC1=O`, the MHC in assay [1] is 14 µg/mL. In assay [2], this compound came in with an MIC of 14 µg/mL (≈ 11.9 µM). In addition, the Ratio in assay [3] was determined as 1.
